For data set [1], the system named is HBV viral production in AD38 cells. Nature of the data set: Viral load production in AD38 cells by quantitative PCR of the HBV core sequence in supernatant. The format is cell-based. The note with it: Hepatitis B virus, 144 h; 10 μM compound, 6 days at 37° C., viral load in supernatant compared against DMSO control wells; read-out: AD38 Viral Load (CpAM/DMSO %) at 10 μM. The method, boiled down:
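Read-out is TaqMan qPCR of the HBV core region in supernatant, quantitated against standards and referenced to DMSO controls (≥3 per plate). Cells: AD38 at 50,000/well, exposed to compound (added as 10× stock in 10% DMSO) for 6 days at 37° C.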

The next data set concerns AD38 cells. Nature of the data set: Viability of AD38 cells (Promega CellTiter-Glo) at the end of compound treatment. It is filed as cell-based. As to conditions: 10 μM compound, 6 days, luminescence normalized against DMSO control wells (controls being 100%). The essentials:
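Luminescent CellTiter-Glo read-out, taken after supernatant was swapped for tetracycline-free 2% FBS medium with 1% DMSO, gave percent viability relative to DMSO controls set at 100%. Cells were plated at 50,000/well and exposed to compound, added as a 10× stock in 10% DMSO, for 6 days at 37° C.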

The values below come from US10183936B2, “Hepatitis B core protein allosteric modulators” (priority 2014, dated 2019).

For `O=C(NCCOc1ccccc1)c1ccc2c(c1)NC(=O)c1ccccc1S2(=O)=O` [Compound 1625], the activity at 10 µM in data set [1] was 2%. Moreover, the “AD38 Viability Normalized Result (CPAM/DMSO %) at 10 μM” value in the data set with AD38 cells came out at 111%.
For `O=C(NCCc1ccc(OC(F)(F)F)cc1)c1ccc2c(c1)NC(=O)c1ccccc1S2` [Compound 1182] the same measures were 13% and 55%.
With `O=C(NCc1cccnc1)c1ccc2c(c1)NC(=O)c1cc(F)ccc1S2` [Compound 1364], in data set [1], the activity at 10 µM is 1%. For the same molecule, in the data set on AD38 cells, the “AD38 Viability Normalized Result (CPAM/DMSO %) at 10 μM” value was 102%.
In the case of `CC(C)(CNC(=O)c1ccc2c(c1)NC(=O)c1ccccc1S2)c1ccccc1` [Compound 1213], in data set [1], the activity at 10 µM worked out at 2%. Moreover, the “AD38 Viability Normalized Result (CPAM/DMSO %) at 10 μM” value with AD38 cells amounted to 55%.
With `O=C(NCCCCc1ccncc1)c1ccc2c(c1)NC(=O)c1ccccc1S2` [Compound 1149], the activity at 10 µM in data set [1] came out at 5%. Moreover, the “AD38 Viability Normalized Result (CPAM/DMSO %) at 10 μM” value in the data set with AD38 cells turned out to be 118%.
With `O=C(NCC1CCCO1)c1ccc2c(c1)NC(=O)c1ccccc1S2` (centres unmarked) [Compound 1592], in data set [1], the activity at 10 µM stood at 50%. The “AD38 Viability Normalized Result (CPAM/DMSO %) at 10 μM” value with AD38 cells was 102%.
For `Cc1c(C(=O)NCc2cccnc2)ccc2c1NC(=O)c1ccccc1S2` [Compound 1515] the same measures were 2% and 82%.
For `O=C(NCc1cncnc1)c1ccc2c(c1)NC(=O)c1ccccc1S2` [Compound 1233] the same measures were 1% and 93%.
For `O=C(NCc1ccncn1)c1ccc2c(c1)NC(=O)c1ccccc1S2` [Compound 1585] the same measures were 66% and 87%.
As for `Cc1cc(C(=O)NCCC2CCCCC2)cc2c1Sc1ccccc1C(=O)N2` [Compound 1286], in data set [1], the activity at 10 µM worked out at 36%. Besides, the “AD38 Viability Normalized Result (CPAM/DMSO %) at 10 μM” value in the data set on AD38 cells is 114%.
For `O=C(NCc1ccccc1)c1ccc2c(c1)NC(=O)c1ccccc1S2` [Compound 1107] the same measures were 2% and 106%.
`Cc1cccc(CCNC(=O)c2ccc3c(c2)NC(=O)c2ccccc2S3)c1` [Compound 1183]: the activity at 10 µM in data set [1] was 2%. Besides, in the data set with AD38 cells, the “AD38 Viability Normalized Result (CPAM/DMSO %) at 10 μM” value turned out to be 36%.
For the molecule `O=C(NCc1cccc(OC(F)(F)F)c1)c1ccc2c(c1)NC(=O)c1ccccc1S2(=O)=O` [Compound 1624], the activity at 10 µM in data set [1] turned out to be 1%. Besides, the “AD38 Viability Normalized Result (CPAM/DMSO %) at 10 μM” value in the data set on AD38 cells is on record as 136%.
In the case of `O=C(NCCC1CCCCC1)c1ccc2c(c1)NC(=O)c1cc(Cl)ccc1S2` [Compound 1235], the activity at 10 µM in data set [1] is 6%. For the same molecule, the “AD38 Viability Normalized Result (CPAM/DMSO %) at 10 μM” value in the data set on AD38 cells is 61%.
For `O=C(NCc1cnco1)c1ccc2c(c1)NC(=O)c1ccccc1S2` [Compound 1264] the same measures were 8% and 104%.
For `O=C(NCCC1CCCCC1)c1ccc2c(c1)NC(=O)c1ccccc1C2` [Compound 1198] the same measures were 3% and 60%.
For `O=C1Nc2c(cc(F)c(C(=O)NCc3cncnc3)c2F)Sc2ccccc21` [Compound 1518] the same measures were 67% and 85%.
As for `COc1ccc(CCNC(=O)c2ccc3c(c2)NC(=O)c2ccccc2S3)cc1OC` [Compound 1125], the activity at 10 µM in data set [1] worked out at 20%. Further, in the data set on AD38 cells, the “AD38 Viability Normalized Result (CPAM/DMSO %) at 10 μM” value stood at 108%.
Consider `O=C(Nc1nncs1)c1ccc2c(c1)NC(=O)c1cc(F)ccc1S2` [Compound 1442], for which the activity at 10 µM in data set [1] is 65%. For the same molecule, the “AD38 Viability Normalized Result (CPAM/DMSO %) at 10 μM” value in the data set with AD38 cells was 99%.
For `O=C(NCCc1cnco1)c1ccc2c(c1)NC(=O)c1c(F)cccc1S2` [Compound 1580] the same measures were 59% and 89%.
For the molecule `Cl.O=C(NCC1CCCN1)c1ccc2c(c1)NC(=O)c1ccccc1S2` (centres unmarked) [Compound 1633, 11-oxo-N-(pyrrolidin-2-ylmethyl)-10, 11-dihydrodibenzo [b,f] [1,4] thiazepine-8-carboxamide hydrochloride], in data set [1], the activity at 10 µM stood at 66%. Also, the “AD38 Viability Normalized Result (CPAM/DMSO %) at 10 μM” value with AD38 cells is given as 124%.
For `O=C(Nc1cc(F)c(F)c(F)c1)c1ccc2c(c1)NC(=O)c1cc(F)ccc1S2` [Compound 1324] the same measures were 10% and 24%.
For `NC(=O)c1ccc2c(c1)NC(=O)c1ccccc1[S+]2[O-]` (centres unmarked) [Compound 1575] the same measures were 90% and 108%.
Regarding `O=C(Nc1cccc(-c2ccccn2)c1)c1ccc2c(c1)NC(=O)c1cc(F)ccc1S2` [Compound 1385], the activity at 10 µM in data set [1] was found to be 26%. In addition, in the data set with AD38 cells, the “AD38 Viability Normalized Result (CPAM/DMSO %) at 10 μM” value was 51%.
Take `CCOc1ccc(CCNC(=O)c2ccc3c(c2)NC(=O)c2ccccc2S3)cc1` [Compound 1214]: the activity at 10 µM in data set [1] amounted to 2%. The “AD38 Viability Normalized Result (CPAM/DMSO %) at 10 μM” value in the data set on AD38 cells was found to be 94%.
For `O=C(NCCC1CCC(F)CC1)c1ccc2c(c1)NC(=O)c1ccccc1S2` (centres unmarked) [Compound 1217] the same measures were 1% and 37%.
For `O=C(Nc1cccc(-c2ccccc2)c1)c1ccc2c(c1)NC(=O)c1cccc(F)c1S2` [Compound 1410] the same measures were 35% and 50%.
For `O=C(NCCc1cccnc1)c1ccc2c(c1)NC(=O)c1cccc(F)c1S2` [Compound 1391] the same measures were 2% and 71%.
Consider `O=C(NC(CO)Cc1cncnc1)c1ccc2c(c1)NC(=O)c1cc(F)ccc1S2` (centres unmarked) [Compound 1361, 2-fluoro-N-(1-hydroxy-3-(pyrimidin-5-yl)propan-2-yl)-11-oxo-10, 11-dihydrodibenzo [b,f] [1,4] thiazepine-8-carboxamide], for which the activity at 10 µM in data set [1] is 79%. Besides, the “AD38 Viability Normalized Result (CPAM/DMSO %) at 10 μM” value in the data set with AD38 cells was determined as 113%.
On to `Cc1c(C(=O)NCc2cncnc2)ccc2c1NC(=O)c1ccccc1S2` [Compound 1478], for which the activity at 10 µM in data set [1] amounted to 2%. Also, the “AD38 Viability Normalized Result (CPAM/DMSO %) at 10 μM” value in the data set on AD38 cells came to 94%.
For `O=C(NCCc1cnco1)c1ccc2c(c1)NC(=O)c1cccc(F)c1S2` [Compound 1487] the same measures were 15% and 96%.
Consider `CCN1c2ccc(C(=O)NCc3cccnc3)cc2NC(=O)c2ccccc21` [Compound 1550], for which the activity at 10 µM in data set [1] stood at 1%. Also, in the data set with AD38 cells, the “AD38 Viability Normalized Result (CPAM/DMSO %) at 10 μM” value worked out at 87%.
For `O=C(NCc1ccccn1)c1ccc2c(c1)NC(=O)c1ccccc1S2` [Compound 1210] the same measures were 25% and 116%.
As for `O=C(Nc1cccc(-c2ccc(O)cc2)c1)c1ccc2c(c1)NC(=O)c1cc(F)ccc1S2` [Compound 1453], the activity at 10 µM in data set [1] amounted to 48%. Also, the “AD38 Viability Normalized Result (CPAM/DMSO %) at 10 μM” value with AD38 cells was 97%.
Regarding `NC(=O)CSc1nnc(CCNC(=O)c2ccc3c(c2)NC(=O)c2ccccc2S3)o1` [Compound 1582], the activity at 10 µM in data set [1] was 8%. For the same molecule, the “AD38 Viability Normalized Result (CPAM/DMSO %) at 10 μM” value in the data set on AD38 cells is listed as 112%.
For `O=C(NCc1cncs1)c1ccc2c(c1)NC(=O)c1ccc(F)cc1S2` [Compound 1356] the same measures were 3% and 101%.
For `O=C(NCCC1CCCCC1)c1ccc2c(c1)NC(=O)c1ccc(F)cc1S2` [Compound 1234] the same measures were 3% and 79%.
For `O=C(NCc1cccc(C(F)(F)F)c1)c1ccc2c(c1)NC(=O)c1ccccc1S2` [Compound 1166] the same measures were 10% and 119%.
Consider `O=C(NCc1cccnc1)c1ccc2c(c1)NC(=O)c1ccccc1C2` [Compound 1591], for which, in data set [1], the activity at 10 µM amounted to 13%. Also, the “AD38 Viability Normalized Result (CPAM/DMSO %) at 10 μM” value in the data set on AD38 cells turned out to be 111%.
Turning to `O=C(NCc1cnc(-c2ccccc2)s1)c1ccc2c(c1)NC(=O)c1ccccc1S2` [Compound 1590], the activity at 10 µM in data set [1] came out at 1%. Also, in the data set with AD38 cells, the “AD38 Viability Normalized Result (CPAM/DMSO %) at 10 μM” value was found to be 96%.
For `O=C(Nc1ccccc1O)c1ccc2c(c1)NC(=O)c1ccccc1S2` [Compound 1229] the same measures were 45% and 76%.
For `O=C(NCc1cnco1)c1cc2c(cc1F)Sc1ccccc1C(=O)N2` [Compound 1430] the same measures were 56% and 92%.
As to `O=C1Nc2cc(S(=O)(=O)N3CC(O)C3)ccc2Sc2ccccc21` [Compound 1434], the activity at 10 µM in data set [1] was determined as 85%. Further, the “AD38 Viability Normalized Result (CPAM/DMSO %) at 10 μM” value with AD38 cells was 96%.
For `O=C(NCc1ncccn1)c1ccc2c(c1)NC(=O)c1ccccc1S2` [Compound 1587] the same measures were 78% and 92%.
For `CC(C)c1ncc(CNC(=O)c2ccc3c(c2)NC(=O)c2ccccc2S3)s1` [Compound 1611] the same measures were 0% and 130%.
For `CC(=O)Nc1cccc(NC(=O)c2ccc3c(c2)NC(=O)c2ccccc2S3)c1` [Compound 1243] the same measures were 20% and 118%.
